Experimental findings from US20260022142A1, “MACROCYCLIC IMMUNOMODULATORS” (Bristol-Myers Squibb Company, priority 2022, published 2026) are described below.

Bridge positions count the residues as written; N and C are the ends. Square brackets hold non-standard residues; d marks the D form. Peptide text beside a SMILES is read from it. * marks the point of attachment. Bip = N[C@@H](Cc1ccc(-c2ccccc2)cc1)C(=O)O; 4Pal = N[C@@H](Cc1ccncc1)C(=O)O; Carboxymethyl = O=C(O)C*; Orn = NCCC[C@H](N)C(=O)O; Pra = C#CC[C@H](N)C(=O)O; Aun = NCCCCCCCCCCC(=O)O; Dab = NCC[C@H](N)C(=O)O; Dap = NC[C@H](N)C(=O)O; AEEA = NCCOCCOCC(=O)O

T1 sequence (Q15116 25-288): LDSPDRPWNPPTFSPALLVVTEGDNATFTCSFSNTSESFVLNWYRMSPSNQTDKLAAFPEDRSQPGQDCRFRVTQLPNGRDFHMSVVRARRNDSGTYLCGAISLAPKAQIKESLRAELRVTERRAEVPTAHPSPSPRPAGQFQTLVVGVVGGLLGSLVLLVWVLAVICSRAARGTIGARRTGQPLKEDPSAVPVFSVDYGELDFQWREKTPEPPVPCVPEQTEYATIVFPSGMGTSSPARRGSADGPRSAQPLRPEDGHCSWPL

The assay concerns the target T1, PD-1/PD-L1 interaction (PE-labeled human PD-L1-Ig binding to Jurkat cell line over-expressing human PD-1) (Homo sapiens, UniProt Q15116).
T1 construct: expressed in transfected cells; host or cells: Jurkat
Description: Jurkat-PD-1 Cell Binding High-Content Screening Assay (CBA). The assay is classed as cell-based. To be noted: Jurkat cell line over-expressing human PD-1; PE-labeled PD-L1-Ig 20 nM final; read-out: Jurkat hPD1-PDL1 IC50. The method, boiled down:
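Binding of fluorescent PD-L1-Ig (20 nM final) to Jurkat-PD-1 cells was measured by automated imaging after 1 h, following a 2 h compound pre-treatment at 37° C.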
On to `C#CC[C@H](NC(=O)COCCOCCNC(=O)[C@H](CCCN)NC(=O)[C@@H]1CSCC(=O)N[C@@H](Cc2ccncc2)C(=O)N[C@@H](Cc2ccc(OCC(=O)O)cc2)C(=O)N[C@@H](CC(=O)O)C(=O)N[C@@H](Cc2c[nH]c3ccccc23)C(=O)N[C@@H](C(C)C)C(=O)N[C@@H](Cc2ccc(-c3ccccc3)cc2)C(=O)N[C@@H]([C@@H](C)CC)C(=O)N[C@@H](CCCN)C(=O)N[C@H](CC(C)C)C(=O)N[C@@H](CCN)C(=O)N[C@@H](CC(C)C)C(=O)N[C@@H](C(C)C)C(=O)N[C@@H]([C@@H](C)O)C(=O)N1)C(=O)N[C@@H](CCCN)C(=O)NCCCCCCCCCCC(=O)O` [Compound 1201] ({CH2CO}-[4Pal]Y(Carboxymethyl)DWV[Bip]I[Orn][dL][Dab]LVTC[Orn][AEEA][Pra][Orn][Aun]-OH; thioether N-14), for which the IC50 was determined as 7.6 nM.
In the case of `C#CC[C@H](NC(=O)COCCOCCNC(=O)[C@H](CCCN)NC(=O)[C@@H]1CSCC(=O)N[C@@H](Cc2ccncc2)C(=O)N[C@@H](Cc2ccc(OCC(=O)O)cc2)C(=O)N[C@@H](CC(=O)O)C(=O)N[C@@H](Cc2c[nH]c3ccccc23)C(=O)N[C@@H](C(C)C)C(=O)N[C@@H](Cc2ccc(-c3ccccc3)cc2)C(=O)N[C@@H]([C@@H](C)CC)C(=O)N[C@@H](CCCN)C(=O)N[C@H](CC(C)C)C(=O)N[C@@H](CCN)C(=O)N[C@@H](CC(C)C)C(=O)N[C@@H](C(C)C)C(=O)N[C@@H]([C@@H](C)O)C(=O)N1)C(=O)N[C@@H](CCCCN)C(=O)NCCCCCCCCCCC(=O)O` [Compound 1202] ({CH2CO}-[4Pal]Y(Carboxymethyl)DWV[Bip]I[Orn][dL][Dab]LVTC[Orn][AEEA][Pra]K[Aun]-OH; thioether N-14) it was 16.7 nM; in that of `C#CC[C@H](NC(=O)COCCOCCNC(=O)[C@H](CCCN)NC(=O)[C@@H]1CSCC(=O)N[C@@H](Cc2ccncc2)C(=O)N[C@@H](Cc2ccc(OCC(=O)O)cc2)C(=O)N[C@@H](CC(=O)O)C(=O)N[C@@H](Cc2c[nH]c3ccccc23)C(=O)N[C@@H](C(C)C)C(=O)N[C@@H](Cc2ccc(-c3ccccc3)cc2)C(=O)N[C@@H]([C@@H](C)CC)C(=O)N[C@@H](CCCN)C(=O)N[C@H](CC(C)C)C(=O)N[C@@H](CCN)C(=O)N[C@@H](CC(C)C)C(=O)N[C@@H](C(C)C)C(=O)N[C@@H]([C@@H](C)O)C(=O)N1)C(=O)N[C@@H](CCCNC(=N)N)C(=O)NCCCCCCCCCCC(=O)O` [Compound 1203] ({CH2CO}-[4Pal]Y(Carboxymethyl)DWV[Bip]I[Orn][dL][Dab]LVTC[Orn][AEEA][Pra]R[Aun]-OH; thioether N-14), 37.4 nM; in that of `C#CC[C@H](NC(=O)COCCOCCNC(=O)[C@H](CCCN)NC(=O)[C@@H]1CSCC(=O)N[C@@H](Cc2ccncc2)C(=O)N[C@@H](Cc2ccc(OCC(=O)O)cc2)C(=O)N[C@@H](CC(=O)O)C(=O)N[C@@H](Cc2c[nH]c3ccccc23)C(=O)N[C@@H](C(C)C)C(=O)N[C@@H](Cc2ccc(-c3ccccc3)cc2)C(=O)N[C@@H]([C@@H](C)CC)C(=O)N[C@@H](CCCN)C(=O)N[C@H](CC(C)C)C(=O)N[C@@H](CCN)C(=O)N[C@@H](CC(C)C)C(=O)N[C@@H](C(C)C)C(=O)N[C@@H]([C@@H](C)O)C(=O)N1)C(=O)N[C@@H](Cc1c[nH]cn1)C(=O)NCCCCCCCCCCC(=O)O` [Compound 1204] ({CH2CO}-[4Pal]Y(Carboxymethyl)DWV[Bip]I[Orn][dL][Dab]LVTC[Orn][AEEA][Pra]H[Aun]-OH; thioether N-14), 9.2 nM.
For `C#CC[C@H](NC(=O)COCCOCCNC(=O)[C@H](CN)NC(=O)[C@@H]1CSCC(=O)N[C@@H](Cc2ccncc2)C(=O)N[C@@H](Cc2ccc(OCC(=O)O)cc2)C(=O)N[C@@H](CC(=O)O)C(=O)N[C@@H](Cc2c[nH]c3ccccc23)C(=O)N[C@@H](C(C)C)C(=O)N[C@@H](Cc2ccc(-c3ccccc3)cc2)C(=O)N[C@@H]([C@@H](C)CC)C(=O)N[C@@H](CCCN)C(=O)N[C@H](CC(C)C)C(=O)N[C@@H](CCN)C(=O)N[C@@H](CC(C)C)C(=O)N[C@@H](C(C)C)C(=O)N[C@@H]([C@@H](C)O)C(=O)N1)C(=O)NCCCCCCCCCCC(=O)O` [Compound 1205] ({CH2CO}-[4Pal]Y(Carboxymethyl)DWV[Bip]I[Orn][dL][Dab]LVTC[Dap][AEEA][Pra][Aun]-OH; thioether N-14), the IC50 is 20 nM.
Take `C#CC[C@H](NC(=O)COCCOCCNC(=O)[C@H](CCN)NC(=O)[C@@H]1CSCC(=O)N[C@@H](Cc2ccncc2)C(=O)N[C@@H](Cc2ccc(OCC(=O)O)cc2)C(=O)N[C@@H](CC(=O)O)C(=O)N[C@@H](Cc2c[nH]c3ccccc23)C(=O)N[C@@H](C(C)C)C(=O)N[C@@H](Cc2ccc(-c3ccccc3)cc2)C(=O)N[C@@H]([C@@H](C)CC)C(=O)N[C@@H](CCCN)C(=O)N[C@H](CC(C)C)C(=O)N[C@@H](CCN)C(=O)N[C@@H](CC(C)C)C(=O)N[C@@H](C(C)C)C(=O)N[C@@H]([C@@H](C)O)C(=O)N1)C(=O)NCCCCCCCCCCC(=O)O` [Compound 1206] ({CH2CO}-[4Pal]Y(Carboxymethyl)DWV[Bip]I[Orn][dL][Dab]LVTC[Dab][AEEA][Pra][Aun]-OH; thioether N-14): the IC50 turned out to be 19.8 nM.
As for `C#CC[C@H](NC(=O)COCCOCCNC(=O)[C@H](CCCN)NC(=O)[C@@H]1CSCC(=O)N[C@@H](Cc2ccncc2)C(=O)N[C@@H](Cc2ccc(OCC(=O)O)cc2)C(=O)N[C@@H](CC(=O)O)C(=O)N[C@@H](Cc2c[nH]c3ccccc23)C(=O)N[C@@H](C(C)C)C(=O)N[C@@H](Cc2ccc(-c3ccccc3)cc2)C(=O)N[C@@H]([C@@H](C)CC)C(=O)N[C@@H](CCCN)C(=O)N[C@H](CC(C)C)C(=O)N[C@@H](CCN)C(=O)N[C@@H](CC(C)C)C(=O)N[C@@H](C(C)C)C(=O)N[C@@H]([C@@H](C)O)C(=O)N1)C(=O)NCCCCCCCCCCC(=O)O` [Compound 1207] ({CH2CO}-[4Pal]Y(Carboxymethyl)DWV[Bip]I[Orn][dL][Dab]LVTC[Orn][AEEA][Pra][Aun]-OH; thioether N-14), the IC50 was determined as 28.5 nM.
Take `C#CC[C@H](NC(=O)COCCOCCNC(=O)[C@H](CCCCN)NC(=O)[C@@H]1CSCC(=O)N[C@@H](Cc2ccncc2)C(=O)N[C@@H](Cc2ccc(OCC(=O)O)cc2)C(=O)N[C@@H](CC(=O)O)C(=O)N[C@@H](Cc2c[nH]c3ccccc23)C(=O)N[C@@H](C(C)C)C(=O)N[C@@H](Cc2ccc(-c3ccccc3)cc2)C(=O)N[C@@H]([C@@H](C)CC)C(=O)N[C@@H](CCCN)C(=O)N[C@H](CC(C)C)C(=O)N[C@@H](CCN)C(=O)N[C@@H](CC(C)C)C(=O)N[C@@H](C(C)C)C(=O)N[C@@H]([C@@H](C)O)C(=O)N1)C(=O)NCCCCCCCCCCC(=O)O` [Compound 1208] ({CH2CO}-[4Pal]Y(Carboxymethyl)DWV[Bip]I[Orn][dL][Dab]LVTCK[AEEA][Pra][Aun]-OH; thioether N-14): the IC50 turned out to be 26.9 nM.
In the case of `C#CC[C@H](NC(=O)COCCOCCNC(=O)[C@H](CCCNC(=N)N)NC(=O)[C@@H]1CSCC(=O)N[C@@H](Cc2ccncc2)C(=O)N[C@@H](Cc2ccc(OCC(=O)O)cc2)C(=O)N[C@@H](CC(=O)O)C(=O)N[C@@H](Cc2c[nH]c3ccccc23)C(=O)N[C@@H](C(C)C)C(=O)N[C@@H](Cc2ccc(-c3ccccc3)cc2)C(=O)N[C@@H]([C@@H](C)CC)C(=O)N[C@@H](CCCN)C(=O)N[C@H](CC(C)C)C(=O)N[C@@H](CCN)C(=O)N[C@@H](CC(C)C)C(=O)N[C@@H](C(C)C)C(=O)N[C@@H]([C@@H](C)O)C(=O)N1)C(=O)NCCCCCCCCCCC(=O)O` [Compound 1209] ({CH2CO}-[4Pal]Y(Carboxymethyl)DWV[Bip]I[Orn][dL][Dab]LVTCR[AEEA][Pra][Aun]-OH; thioether N-14) it was 35.2 nM.
As to `C#CC[C@H](NC(=O)COCCOCCNC(=O)[C@H](Cc1cnc[nH]1)NC(=O)[C@@H]1CSCC(=O)N[C@@H](Cc2ccncc2)C(=O)N[C@@H](Cc2ccc(OCC(=O)O)cc2)C(=O)N[C@@H](CC(=O)O)C(=O)N[C@@H](Cc2c[nH]c3ccccc23)C(=O)N[C@@H](C(C)C)C(=O)N[C@@H](Cc2ccc(-c3ccccc3)cc2)C(=O)N[C@@H]([C@@H](C)CC)C(=O)N[C@@H](CCCN)C(=O)N[C@H](CC(C)C)C(=O)N[C@@H](CCN)C(=O)N[C@@H](CC(C)C)C(=O)N[C@@H](C(C)C)C(=O)N[C@@H]([C@@H](C)O)C(=O)N1)C(=O)NCCCCCCCCCCC(=O)O` [Compound 1210] ({CH2CO}-[4Pal]Y(Carboxymethyl)DWV[Bip]I[Orn][dL][Dab]LVTCH[AEEA][Pra][Aun]-OH; thioether N-14), the IC50 was found to be 22.2 nM.
Consider `C#CC[C@H](NC(=O)COCCOCCNC(=O)[C@@H]1CSCC(=O)N[C@@H](Cc2ccncc2)C(=O)N[C@@H](Cc2ccc(OCC(=O)O)cc2)C(=O)N[C@@H](CC(=O)O)C(=O)N[C@@H](Cc2c[nH]c3ccccc23)C(=O)N[C@@H](C(C)C)C(=O)N[C@@H](Cc2ccc(-c3ccccc3)cc2)C(=O)N[C@@H]([C@@H](C)CC)C(=O)N[C@@H](CCCN)C(=O)N[C@H](CC(C)C)C(=O)N[C@@H](CCN)C(=O)N[C@@H](CC(C)C)C(=O)N[C@@H](C(C)C)C(=O)N[C@@H]([C@@H](C)O)C(=O)N1)C(=O)N[C@@H](CN)C(=O)NCCCCCCCCCCC(=O)O` [Compound 1211] ({CH2CO}-[4Pal]Y(Carboxymethyl)DWV[Bip]I[Orn][dL][Dab]LVTC[AEEA][Pra][Dap][Aun]-OH; thioether N-14), for which the IC50 is 15.6 nM.
Regarding `C#CC[C@H](NC(=O)COCCOCCNC(=O)[C@@H]1CSCC(=O)N[C@@H](Cc2ccncc2)C(=O)N[C@@H](Cc2ccc(OCC(=O)O)cc2)C(=O)N[C@@H](CC(=O)O)C(=O)N[C@@H](Cc2c[nH]c3ccccc23)C(=O)N[C@@H](C(C)C)C(=O)N[C@@H](Cc2ccc(-c3ccccc3)cc2)C(=O)N[C@@H]([C@@H](C)CC)C(=O)N[C@@H](CCCN)C(=O)N[C@H](CC(C)C)C(=O)N[C@@H](CCN)C(=O)N[C@@H](CC(C)C)C(=O)N[C@@H](C(C)C)C(=O)N[C@@H]([C@@H](C)O)C(=O)N1)C(=O)N[C@@H](CCN)C(=O)NCCCCCCCCCCC(=O)O` [Compound 1212] ({CH2CO}-[4Pal]Y(Carboxymethyl)DWV[Bip]I[Orn][dL][Dab]LVTC[AEEA][Pra][Dab][Aun]-OH; thioether N-14), the IC50 stood at 33.2 nM.

A word on the IC50: it is the midpoint of a concentration-inhibition curve.
